# Test results reported in ChEMBL document CHEMBL1201862, “PubChem BioAssay data set” (2004).
# Calls of active or inactive are those of the source.
# Tests used:
# [1] = target: T1, Probable nicotinate-nucleotide adenylyltransferase (Staphylococcus aureus (strain N315), UniProt P65502); assay type: functional, Staphylococcus aureus subsp. aureus N315; details: read-out: IC50_Mean;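 on IC50 Mean: confirmatory dose-response retesting of NadD inhibitor hits first found in an ultra-high-throughput screen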
# Leucine aminopeptidase = target: T2, Leucine aminopeptidase (Plasmodium falciparum 3D7, UniProt Q8IL11); assay: P. falciparum M17LAP inhibitors, primary screen, biochemical, fluorogenic H-Leu-NHMec substrate, 1536-well (AID 1619); assay type: functional
# T2 sequence (Q8IL11 whole entry): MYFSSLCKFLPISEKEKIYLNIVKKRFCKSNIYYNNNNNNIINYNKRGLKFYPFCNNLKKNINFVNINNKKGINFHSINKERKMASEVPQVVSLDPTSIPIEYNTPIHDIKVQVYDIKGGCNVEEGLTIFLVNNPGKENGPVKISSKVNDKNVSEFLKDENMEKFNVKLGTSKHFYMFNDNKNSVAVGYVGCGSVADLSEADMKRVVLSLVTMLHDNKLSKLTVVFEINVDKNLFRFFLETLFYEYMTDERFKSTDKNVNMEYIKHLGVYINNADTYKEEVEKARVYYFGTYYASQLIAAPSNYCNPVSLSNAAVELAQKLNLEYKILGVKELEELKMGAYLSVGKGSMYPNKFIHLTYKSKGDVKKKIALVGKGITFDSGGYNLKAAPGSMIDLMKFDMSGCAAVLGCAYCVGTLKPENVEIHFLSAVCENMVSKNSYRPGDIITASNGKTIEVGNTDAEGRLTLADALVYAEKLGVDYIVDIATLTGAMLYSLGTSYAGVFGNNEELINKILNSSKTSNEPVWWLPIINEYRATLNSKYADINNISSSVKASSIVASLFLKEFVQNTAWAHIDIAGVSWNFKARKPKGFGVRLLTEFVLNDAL
# cells = assay type: functional, cell-based
# [2] = target: T1, Probable nicotinate-nucleotide adenylyltransferase; assay type: functional, Staphylococcus aureus subsp. aureus N315
# [3] = target: Benomyl/methotrexate resistance protein (Candida albicans, UniProt P28873); assay: CaMdr1 efflux pump inhibitor potency, dose response, singleplex, Cherry Pick1 hits (AID 588608); assay type: functional
# Beta-lactamase [4] = target: T3, Beta-lactamase (Pseudomonas aeruginosa, UniProt Q79MP6); assay: IMP-1 metallo-beta-lactamase inhibitors, dose response, selectivity assay for VIM-2 inhibitor project, biochemical, epi-absorbance (AID 1920)
# Beta-lactamase [5] = target: Beta-lactamase (Salmonella choleraesuis (strain SC-B67), UniProt Q5J463); assay: Epi-absorbance-based counterscreen for selective VIM-2 inhibitors: dose response biochemical high throughput screening assay to identify inhibitors of TEM-1 serine-beta-lactamase.
# Beta-lactamase [6] = target: T3, Beta-lactamase; assay: […] counterscreen for selective VIM-2 inhibitors: dose response biochemical high throughput screening assay to identify inhibitors of IMP-1 metallo-beta-lactamase.
# [7] = target: T4, High affinity choline transporter 1 (Homo sapiens, UniProt Q9GZV3); assay: CHT activators, dose response, cell-based, 10-point CRC, membrane potential dye (AID 602376); assay type: functional
# T4 sequence (Q9GZV3 whole entry): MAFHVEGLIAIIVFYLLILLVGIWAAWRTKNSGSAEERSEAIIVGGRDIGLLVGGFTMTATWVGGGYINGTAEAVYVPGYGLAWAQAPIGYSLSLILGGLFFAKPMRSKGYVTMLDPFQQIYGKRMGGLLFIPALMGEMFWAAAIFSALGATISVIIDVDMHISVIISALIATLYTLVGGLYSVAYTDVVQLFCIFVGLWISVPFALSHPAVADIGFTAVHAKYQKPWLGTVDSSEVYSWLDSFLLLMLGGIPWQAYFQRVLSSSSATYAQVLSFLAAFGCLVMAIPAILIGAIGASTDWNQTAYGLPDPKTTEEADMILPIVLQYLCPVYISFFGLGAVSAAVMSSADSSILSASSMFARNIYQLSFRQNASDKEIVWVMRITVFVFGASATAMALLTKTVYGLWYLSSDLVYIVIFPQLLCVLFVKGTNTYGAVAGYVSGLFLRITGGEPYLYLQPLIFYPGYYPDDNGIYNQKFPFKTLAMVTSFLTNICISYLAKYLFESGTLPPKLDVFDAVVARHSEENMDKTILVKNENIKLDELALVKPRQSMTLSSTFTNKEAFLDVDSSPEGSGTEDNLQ
# [8] = target: G-protein coupled receptor 55 (Homo sapiens, UniProt Q9Y2T6); assay: GPR55 agonists via beta-arrestin recruitment, primary screen, imaging, U2OS cells, beta-arrestin-GFP redistribution (AID 1961); assay type: functional
# Caspase-6 = target: T5, Caspase-6 (Homo sapiens, UniProt P55212); assay: human caspase-6 inhibitors, dose response, biochemical, VEID-R110 fluorescence, cherry-pick (AID 720632)
# T5 sequence (P55212 whole entry): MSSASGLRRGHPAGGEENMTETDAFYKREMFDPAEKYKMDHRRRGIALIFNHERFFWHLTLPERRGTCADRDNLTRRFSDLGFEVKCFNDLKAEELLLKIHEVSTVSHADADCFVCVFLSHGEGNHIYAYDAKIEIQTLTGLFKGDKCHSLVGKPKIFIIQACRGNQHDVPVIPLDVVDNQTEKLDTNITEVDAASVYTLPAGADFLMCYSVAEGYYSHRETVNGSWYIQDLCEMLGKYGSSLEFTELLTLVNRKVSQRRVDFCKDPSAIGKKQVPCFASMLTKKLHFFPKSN
# Caspase-7 = Caspase-7 (Homo sapiens, UniProt P55210); assay: human caspase-7 inhibitors, dose response, selectivity assay for caspase-6 inhibitor project, biochemical, DEVD-R110 fluorescence, cherry-pick (AID 743295)
# [9] = target: T6, Low molecular weight phosphotyrosine protein phosphatase (Homo sapiens, UniProt P24666); assay type: functional; details: read-out: IC50_Mean
# [10] = target: Potassium voltage-gated channel subfamily KQT member 2 (Rattus norvegicus, UniProt O88943); assay: KCNQ2 potassium channel inhibitors, dose response, cell-based, automated electrophysiology, set II, rat KCNQ2 (AID 588637); assay type: functional
# [11] = target: Voltage-dependent T-type calcium channel subunit alpha-1H (Homo sapiens, UniProt O95180); assay type: functional;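 further: channel activity triggered by adding a high calcium stimulation buffer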
# [12] = target: Nuclear receptor subfamily 5 group A member 2 (Homo sapiens, UniProt O00482); assay type: functional, cell-based;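 further: HEK293T cells transfected with LRH-1 and a StAR promoter luciferase reporter; potency for inhibitors that lower LRH-1 driven reporter light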
# [13] = StAR promoter reporter inhibition counter-screen, dose response, counter-screen for LRH-1 inverse agonist project, cell-based, luminescence, luciferase reporter (AID 651969); assay type: functional
# Steroidogenic factor 1 = Steroidogenic factor 1 (Homo sapiens, UniProt Q13285); assay: Counterscreen for inverse agonists of the liver receptor homolog-1 (LRH-1; NR5A2): Luminescence-based cell-based high throughput dose response assay to identify inverse agonists of the Steroidogenic Factor 1 Nuclear Receptor (SF1; NR5A1).; assay type: functional
# [14] = target: T7, Carboxy-terminal domain RNA polymerase II polypeptide A small phosphatase 1 (Homo sapiens, UniProt Q9GZU7); assay: inhibitors of CTDSP1, concentration-response testing, biochemical assay, absorbance-based, actives from ultra-high-throughput screening (AID 540297); assay type: functional
# T7 sequence (Q9GZU7 whole entry): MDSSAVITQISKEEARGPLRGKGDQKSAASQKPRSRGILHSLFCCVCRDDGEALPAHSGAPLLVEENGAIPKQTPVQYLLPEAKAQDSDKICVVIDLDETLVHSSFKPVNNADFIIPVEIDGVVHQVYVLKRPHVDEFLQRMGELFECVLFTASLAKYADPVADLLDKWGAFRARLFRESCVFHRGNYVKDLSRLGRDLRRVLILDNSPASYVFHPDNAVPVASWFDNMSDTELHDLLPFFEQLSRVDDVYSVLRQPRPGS
# [15] = target: T6, Low molecular weight phosphotyrosine protein phosphatase; assay type: functional; details: read-out: IC50_Mean; remark: listed apart in the source
# [16] = target: Mitochondrial peptide methionine sulfoxide reductase (Bos taurus, UniProt P54149); assay type: functional;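 further: absorbance read-out, biochemical high-throughput dose-response screen for MsrA inhibitors, confirmatory; recombinant bovine MsrA coupled to E. coli TrxB with NADPH and selenocystamine; potency is for inhibitors of MsrA activity on DMSO substrate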
# [17] = ARNT/TACC3 interaction disruptors, potency, confirmation, biochemical, AlphaScreen, cherry-picked samples (AID 651703); assay type: functional, Homo sapiens;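 further: His-tagged ARNT PAS-B domain paired with GST-TACC3 E629A dimer coactivator fragment; potency of inhibitors that break up the complex and lower AlphaScreen signal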
# [18] = target: 26S proteasome non-ATPase regulatory subunit 14 (Homo sapiens, UniProt O00487); assay: inhibition of proteasome subunit RPN11 – biochemical, fluorescence polarization, uHTS hits, confirmation (AID 602368); assay type: functional
# [19] = target: 72 kDa type IV collagenase (Homo sapiens, UniProt P08253); assay: Dose Response validation of uHTS RPN11 inhibitor hits using a MMP-2 Fluorescence assay.; assay type: functional
# Prothrombin = Prothrombin (Bos taurus, UniProt P00735); assay: thrombin inhibition, dose response, biochemical, fluorescence polarization, uHTS hits (AID 602369); assay type: functional
# [20] = target: 5-hydroxytryptamine receptor 2A (Mus musculus, UniProt P35363); assay type: functional, cell-based;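 further: CHO-K1 cells with tagged receptor and beta-arrestin; agonist potency measured as compound-induced activation of the receptor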
# Mu-type opioid receptor = Mu-type opioid receptor (Homo sapiens, UniProt P35372); assay type: functional, cell-based;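 further: U2OS cells with beta-arrestin recruitment to OPRM1 by beta-gal complementation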
# [21] = growth suppression of beta-catenin-knockout colon cells, dose response, cell-based, HCT116, human colon tumor (AID 1045); assay type: functional;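 further: HCT116 colon tumor cells with beta catenin knocked out; cells exposed to compound for 60 hours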
# [22] = growth suppression of PTEN-null colon cells, dose response, cell-based, HCT116 PTEN knockout (AID 1047); assay type: functional;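 further: HCT116 colon tumor cells with PTEN knocked out; cells exposed to compound for 60 hours before readout; potency for loss of cell viability measured by luminescence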
# Vero = assay: cells; assay type: functional; details: Chlorocebus sabaeus
# [23] = Fluorescence-based cell-based high throughput dose response assay for inhibitors of the interaction of nucleotide-binding oligomerization domain containing 2 (NOD2) and the receptor-interacting serine-threonine kinase 2 (RIPK2).; assay type: functional; details: Homo sapiens
# Beta Lactamase = Beta Lactamase (Pseudomonas aeruginosa, UniProt Q932Y6); assay: beta-lactamase reporter inhibitor potency, dose response, artefact control for NOD2-RIPK2 interaction inhibitor project, BLA reporter cells, FRET fluorescence (AID 651552); assay type: functional, cell-based
# [24] = target: T8, COUP transcription factor 2 (Homo sapiens, UniProt P24468); assay: Luminescence-based cell-based high throughput dose response assay to identify inhibitors of COUP-TFII (NR2F2).; assay type: functional;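 further: HEK293 cells transiently cotransfected with COUP-TFII expression vector and reporter; luciferase reporter luminescence driven by COUP-TFII from the pX2-168 reporter plasmid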
# T8 sequence (P24468 whole entry): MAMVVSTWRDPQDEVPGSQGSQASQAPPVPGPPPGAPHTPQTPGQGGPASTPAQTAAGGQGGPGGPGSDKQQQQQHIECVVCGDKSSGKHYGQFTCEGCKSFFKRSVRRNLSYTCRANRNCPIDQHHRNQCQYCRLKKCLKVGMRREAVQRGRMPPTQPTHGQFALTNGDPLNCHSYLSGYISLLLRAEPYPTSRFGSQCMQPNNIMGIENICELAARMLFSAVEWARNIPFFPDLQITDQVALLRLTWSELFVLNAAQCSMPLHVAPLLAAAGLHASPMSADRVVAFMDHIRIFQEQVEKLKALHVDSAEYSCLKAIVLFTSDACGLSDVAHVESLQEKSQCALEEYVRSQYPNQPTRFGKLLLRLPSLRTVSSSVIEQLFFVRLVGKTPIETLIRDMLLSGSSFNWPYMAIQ
# [25] = NIH-3T3 fibroblast cytotoxicity, dose response, cytotoxicity control, cell-based, fluorescence, Alamar Blue, secondary assay (AID 2327); assay type: functional;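 further: NIH-3T3 mouse fibroblasts cultured with fluconazole at 8 µg/mL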
# Protein Wnt-3a = Protein Wnt-3a (Mus musculus, UniProt P27467); assay: Wnt3a-driven reporter signaling inhibition, dose response, selectivity assay for Gli-SUFU antagonist project, Wnt-LIGHT cells, luminescence (AID 651570); assay type: functional; details: read-out: IC50_Mean;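 further: Wnt-LIGHT reporter cells stimulated with conditioned medium from Wnt3a-producing cells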
# [26] = C. albicans growth with fluconazole, confirmation, fluorescence, retest (AID 2467); assay type: functional, cell-based
# [27] = target: Apoptotic protease-activating factor 1 (Homo sapiens, UniProt O14727); assay: SAR analysis of small molecule Activators of Apaf-1 in a Fluorescent assay.; assay type: functional; details: read-out: EC50_Mean;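 further: caspase-3 cleavage of fluorogenic Rh110 DEVD substrate downstream of apoptosome activation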
# T3 sequence (Q79MP6 whole entry): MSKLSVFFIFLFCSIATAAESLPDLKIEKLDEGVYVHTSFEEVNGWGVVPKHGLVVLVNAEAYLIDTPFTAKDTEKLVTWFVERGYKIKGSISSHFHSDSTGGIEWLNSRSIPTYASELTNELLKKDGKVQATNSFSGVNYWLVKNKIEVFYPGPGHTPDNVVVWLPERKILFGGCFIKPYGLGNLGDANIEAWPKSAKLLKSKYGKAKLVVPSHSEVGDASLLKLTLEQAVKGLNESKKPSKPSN
# Voltage-dependent T-type calcium channel subunit alpha-1H, sequence (O95180 whole entry): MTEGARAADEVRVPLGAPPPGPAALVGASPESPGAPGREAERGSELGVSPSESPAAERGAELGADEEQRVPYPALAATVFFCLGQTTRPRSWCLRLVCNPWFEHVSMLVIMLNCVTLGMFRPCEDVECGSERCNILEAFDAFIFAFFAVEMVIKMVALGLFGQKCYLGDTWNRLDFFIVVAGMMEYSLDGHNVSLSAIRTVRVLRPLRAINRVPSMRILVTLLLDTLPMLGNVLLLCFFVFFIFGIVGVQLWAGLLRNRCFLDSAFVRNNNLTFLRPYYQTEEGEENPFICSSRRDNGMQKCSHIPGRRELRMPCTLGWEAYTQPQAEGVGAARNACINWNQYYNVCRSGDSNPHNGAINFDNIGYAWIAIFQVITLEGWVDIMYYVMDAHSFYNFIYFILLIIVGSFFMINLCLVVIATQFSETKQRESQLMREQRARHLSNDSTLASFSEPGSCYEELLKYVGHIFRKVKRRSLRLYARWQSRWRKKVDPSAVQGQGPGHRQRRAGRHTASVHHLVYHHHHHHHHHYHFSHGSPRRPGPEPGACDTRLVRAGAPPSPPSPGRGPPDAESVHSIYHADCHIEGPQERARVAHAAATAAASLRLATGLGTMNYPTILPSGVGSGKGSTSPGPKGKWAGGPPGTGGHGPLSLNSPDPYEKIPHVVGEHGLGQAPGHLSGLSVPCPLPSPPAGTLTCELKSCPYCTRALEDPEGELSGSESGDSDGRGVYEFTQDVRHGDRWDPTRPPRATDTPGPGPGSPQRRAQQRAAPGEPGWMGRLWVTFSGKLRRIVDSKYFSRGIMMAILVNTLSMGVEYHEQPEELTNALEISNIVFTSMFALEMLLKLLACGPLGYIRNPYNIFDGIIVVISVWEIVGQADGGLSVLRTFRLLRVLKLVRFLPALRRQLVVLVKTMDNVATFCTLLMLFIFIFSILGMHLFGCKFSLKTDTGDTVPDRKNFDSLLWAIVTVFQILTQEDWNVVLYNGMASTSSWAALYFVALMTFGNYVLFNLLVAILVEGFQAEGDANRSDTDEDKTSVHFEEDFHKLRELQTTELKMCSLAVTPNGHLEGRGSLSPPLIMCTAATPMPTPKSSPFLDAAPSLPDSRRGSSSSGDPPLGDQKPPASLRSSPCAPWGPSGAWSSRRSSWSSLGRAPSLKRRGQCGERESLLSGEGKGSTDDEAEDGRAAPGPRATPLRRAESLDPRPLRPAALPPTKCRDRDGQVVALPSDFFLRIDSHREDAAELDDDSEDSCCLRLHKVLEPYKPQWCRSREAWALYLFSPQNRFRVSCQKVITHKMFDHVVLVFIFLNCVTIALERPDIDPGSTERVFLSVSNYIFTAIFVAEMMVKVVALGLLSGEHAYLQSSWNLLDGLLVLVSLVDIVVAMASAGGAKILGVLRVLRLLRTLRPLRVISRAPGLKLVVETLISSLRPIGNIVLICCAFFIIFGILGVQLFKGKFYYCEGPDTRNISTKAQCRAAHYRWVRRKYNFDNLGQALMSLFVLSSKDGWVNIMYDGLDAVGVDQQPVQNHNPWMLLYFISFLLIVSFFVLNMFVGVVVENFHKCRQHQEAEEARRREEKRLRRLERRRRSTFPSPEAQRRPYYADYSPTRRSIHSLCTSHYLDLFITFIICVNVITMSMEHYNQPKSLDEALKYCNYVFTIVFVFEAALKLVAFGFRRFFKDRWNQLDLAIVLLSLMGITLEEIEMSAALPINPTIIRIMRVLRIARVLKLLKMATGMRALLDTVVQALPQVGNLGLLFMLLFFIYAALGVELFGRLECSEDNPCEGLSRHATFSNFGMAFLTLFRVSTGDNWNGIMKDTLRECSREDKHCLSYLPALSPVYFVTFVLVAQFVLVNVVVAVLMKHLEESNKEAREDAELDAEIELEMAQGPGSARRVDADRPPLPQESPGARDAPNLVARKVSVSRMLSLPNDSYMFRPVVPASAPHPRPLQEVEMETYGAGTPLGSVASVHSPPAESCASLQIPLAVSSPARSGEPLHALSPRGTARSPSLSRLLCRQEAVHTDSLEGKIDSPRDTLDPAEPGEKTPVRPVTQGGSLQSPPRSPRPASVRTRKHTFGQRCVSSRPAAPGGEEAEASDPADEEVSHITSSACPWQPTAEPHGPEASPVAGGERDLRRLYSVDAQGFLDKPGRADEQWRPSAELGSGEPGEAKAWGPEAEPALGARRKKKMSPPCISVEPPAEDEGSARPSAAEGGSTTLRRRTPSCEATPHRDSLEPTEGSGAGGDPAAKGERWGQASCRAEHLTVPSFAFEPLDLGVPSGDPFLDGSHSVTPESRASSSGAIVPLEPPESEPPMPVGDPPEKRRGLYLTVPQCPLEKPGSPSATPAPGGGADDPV
# T1 sequence (P65502 whole entry): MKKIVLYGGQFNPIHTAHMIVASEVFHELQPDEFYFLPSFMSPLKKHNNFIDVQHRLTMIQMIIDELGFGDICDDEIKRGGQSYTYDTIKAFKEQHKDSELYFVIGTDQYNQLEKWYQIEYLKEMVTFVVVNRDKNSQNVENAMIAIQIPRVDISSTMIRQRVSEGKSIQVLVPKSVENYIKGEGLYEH
# T6 sequence (P24666 whole entry): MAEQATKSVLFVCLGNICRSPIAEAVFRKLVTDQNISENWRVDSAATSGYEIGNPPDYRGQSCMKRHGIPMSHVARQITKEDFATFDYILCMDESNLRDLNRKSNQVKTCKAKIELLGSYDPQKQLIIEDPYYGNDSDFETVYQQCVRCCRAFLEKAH
# G-protein coupled receptor 55, sequence (Q9Y2T6 whole entry): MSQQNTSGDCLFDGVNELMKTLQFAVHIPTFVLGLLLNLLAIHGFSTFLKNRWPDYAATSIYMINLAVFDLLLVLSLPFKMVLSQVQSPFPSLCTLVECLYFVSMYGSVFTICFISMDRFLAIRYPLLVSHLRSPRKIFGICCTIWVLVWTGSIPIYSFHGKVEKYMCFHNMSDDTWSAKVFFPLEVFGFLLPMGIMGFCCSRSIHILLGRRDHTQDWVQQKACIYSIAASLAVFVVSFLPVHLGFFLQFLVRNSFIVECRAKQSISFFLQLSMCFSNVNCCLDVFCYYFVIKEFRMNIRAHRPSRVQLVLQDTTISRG
# 72 kDa type IV collagenase, sequence (P08253 whole entry): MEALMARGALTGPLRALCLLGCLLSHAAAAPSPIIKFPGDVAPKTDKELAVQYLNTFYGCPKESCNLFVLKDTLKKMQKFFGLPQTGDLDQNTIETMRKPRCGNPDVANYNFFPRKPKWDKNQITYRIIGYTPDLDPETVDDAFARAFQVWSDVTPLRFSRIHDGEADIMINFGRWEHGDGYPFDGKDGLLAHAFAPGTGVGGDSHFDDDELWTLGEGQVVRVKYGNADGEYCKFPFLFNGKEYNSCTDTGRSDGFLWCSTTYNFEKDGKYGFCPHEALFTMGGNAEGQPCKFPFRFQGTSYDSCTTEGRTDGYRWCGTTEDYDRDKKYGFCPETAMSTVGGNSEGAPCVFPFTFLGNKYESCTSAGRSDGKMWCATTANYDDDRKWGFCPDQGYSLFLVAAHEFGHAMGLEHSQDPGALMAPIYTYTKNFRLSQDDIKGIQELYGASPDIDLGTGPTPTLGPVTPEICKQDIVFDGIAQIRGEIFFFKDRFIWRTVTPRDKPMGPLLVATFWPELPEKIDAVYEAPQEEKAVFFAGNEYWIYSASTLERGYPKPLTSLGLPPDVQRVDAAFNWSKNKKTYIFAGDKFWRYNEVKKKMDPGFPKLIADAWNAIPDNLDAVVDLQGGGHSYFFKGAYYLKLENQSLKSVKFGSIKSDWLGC
# 5-hydroxytryptamine receptor 2A, sequence (P35363 whole entry): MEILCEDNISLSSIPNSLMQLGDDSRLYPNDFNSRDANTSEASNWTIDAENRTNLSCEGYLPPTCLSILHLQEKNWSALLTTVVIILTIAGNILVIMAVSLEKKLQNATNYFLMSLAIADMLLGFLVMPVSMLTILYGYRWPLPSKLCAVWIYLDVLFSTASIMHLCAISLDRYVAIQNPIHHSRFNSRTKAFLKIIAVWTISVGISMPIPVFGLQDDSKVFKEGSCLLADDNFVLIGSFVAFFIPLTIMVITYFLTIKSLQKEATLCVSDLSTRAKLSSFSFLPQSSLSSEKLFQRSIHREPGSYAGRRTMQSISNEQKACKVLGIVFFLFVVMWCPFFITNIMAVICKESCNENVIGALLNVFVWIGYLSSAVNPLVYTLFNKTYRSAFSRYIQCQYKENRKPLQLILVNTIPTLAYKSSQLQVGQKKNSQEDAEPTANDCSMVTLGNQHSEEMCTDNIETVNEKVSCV
# Mu-type opioid receptor, sequence (P35372 whole entry): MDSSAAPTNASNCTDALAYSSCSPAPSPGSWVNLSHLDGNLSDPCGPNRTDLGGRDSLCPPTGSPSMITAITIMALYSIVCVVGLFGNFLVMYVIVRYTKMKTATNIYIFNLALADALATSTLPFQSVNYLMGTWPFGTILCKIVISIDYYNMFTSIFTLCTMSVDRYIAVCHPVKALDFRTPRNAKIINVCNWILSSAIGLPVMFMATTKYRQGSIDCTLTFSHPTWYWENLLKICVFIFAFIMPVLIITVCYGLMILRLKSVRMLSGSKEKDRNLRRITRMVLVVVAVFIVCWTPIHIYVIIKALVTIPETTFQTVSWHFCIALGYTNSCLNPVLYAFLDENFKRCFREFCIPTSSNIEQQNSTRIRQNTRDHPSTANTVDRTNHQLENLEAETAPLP
smiles,measurement,setting,value
CCc1nnc(NS(=O)(=O)c2ccc(/N=C/c3c(C)nn(-c4ccc(C)c(C)c4)c3O)cc2)s1,IC50,[1],16.5 µM (active)
same,IC50,Leucine aminopeptidase,14.4 µM (active)
same,IC50,cells,70 µM (inactive)
same,IC50,[2],4.55 µM (active)
COc1ccc(C2CC(c3ccccc3C(F)(F)F)=NN2c2ccc(S(N)(=O)=O)cc2)cc1 (stereo not given),EC50,[3],22.6 µM (active)
O=C(O)c1ccccc1C(=O)c1cccc2ccccc12,IC50,Beta-lactamase [4],> 59.6 µM (inactive)
same,IC50,Beta-lactamase [5],> 59.6 µM (inactive)
same,IC50,Beta-lactamase [6],> 59.6 µM (inactive)
CCc1ccc(Nc2n[n+](-c3ccccc3)c(-c3ccc(SC)cc3)s2)cc1,EC50,[7],10.2 µM (active)
same,EC50,[8],23.1 µM (inactive)
CCCCNC(=O)c1nc(C2CCNCC2)oc1-c1cccc(C(F)(F)F)c1,AC50,Caspase-6,1.6 µM (active)
same,AC50,Caspase-7,> 70 µM (inactive)
same,IC50,[9],39.9 µM (inactive)
COc1ccc(-c2nc(CSCC(=O)NC3CCCc4ccccc43)c(C)o2)cc1 (stereo not given),IC50,[10],1.76 µM (active)
same,EC50,[11],3.95 µM (active)
N=c1sccn1CC(=O)Nc1ccc(S(N)(=O)=O)cc1,IC50,[12],2.32 µM (active)
same,IC50,[13],35.9 µM (inactive)
same,IC50,Steroidogenic factor 1,3.81 µM (active)
O=C(Nc1nc2ccsc2c(=O)s1)c1ccc(Cl)cc1,IC50,[14],5.43 µM (active)
same,IC50,[15],39.3 µM (inactive)
O=C(C(=O)c1ccc(O)c(O)c1)c1ccc(O)c(O)c1,IC50,[16],112 µM (inactive)
Cc1cccc(NC(=O)C(C)N2CC=C(c3ccccc3)CC2)c1 (stereo not given),AC50,[17],88.4 µM (active)
CC1CCN(c2ccc3c(c2)S(=O)(=O)c2cccc(C(=O)NC4CCCCC4)c2C3=O)CC1,IC50,[18],14.1 µM (active)
same,IC50,[19],> 100 µM (inactive)
same,IC50,Prothrombin,26.8 µM (active)
OC(COc1ccc2cc(Br)ccc2c1)CN1CCN(c2ccccn2)CC1 (stereo not given),EC50,[20],0.903 µM (active)
same,EC50,Mu-type opioid receptor,92.5 µM (inactive)
Fc1ccc(C(c2nnnn2C2CCCC2)N(Cc2ccco2)CC2CCCO2)cc1 (stereo not given),EC50,[7],14.5 µM (active)
same,EC50,[11],3.83 µM (active)
N#Cc1ccccc1Cn1cc(/C=C/[N+](=O)[O-])c2ccccc21,EC50,[21],18 µM (active)
same,EC50,[22],17.8 µM (active)
same,EC50,[8],3.11 µM (active)
same,CC50,Vero,8.92 µM (active)
same,IC50,[23],10.3 µM (inactive)
same,IC50,Beta Lactamase,24.4 µM (inactive)
Cc1nn(C)c(C)c1/C=C/C(=O)c1ccc(Cl)cc1Cl,IC50,[24],14.8 µM (inactive)
same,EC50,[25],84.9 µM (inconclusive)
same,IC50,Protein Wnt-3a,2.49 µM (active)
same,EC50,[26],3.56 µM (active)
O=C(Nc1cccc(O)c1)C1CC(c2ccc(F)cc2)=NO1 (stereo not given),EC50,[27],> 100 µM (inactive)
